Values joined by “and” are separate entries in the source; they are usually repeats but may differ in a detail not shown here. Equal values may be shown once.
Assays:
P. berghei sporozoites = test: P. berghei liver-stage assay (sporozoites in Hep G2-A16-CD81 cells, luciferase); format: cell-based, Plasmodium berghei; conditions: for IC50: Plasmodium berghei, HepG2-A16-CD81, sporozoites in Hep G2-A16-CD81 cells, 48 h post infection, ± SE, read-out: Activity against the P. berghei liver stage, IC50
Experimental: (§1) Briefly, 3000 Hep G2-A16-CD81 cells/well were seeded in 1536-well plates (Greiner Bio). 50 nL of the test and control compound diluted in DMSO was added and incubated for 24 h. […] The plates were centrifuged for 5 min at 330 × g and incubated at 37°C. Forty-eight hours post infection, 2 μL of luciferin reagent (Promega BrightGlo) was added to each well, and the luciferase activity was detected using a Perkin Elmer Envision plate reader. […] To counter-screen for cellular toxicity, Hep G2-A16-CD81 cells were seeded as above for the sporozoite liver-stage assay but in the absence of sporozoites. Toxicity measurements were performed by adding Promega CellTiterGlo® (2 μL), followed by luminescence measurements. Curve fitting was done as described above using puromycin (25 μM) as a positive control and DMSO as negative control wells.

Hep G2-A16-CD81 cells = test: Hep G2 cellular toxicity counter-screen (CellTiterGlo); format: cell-based; conditions: HepG2-A16-CD81, no sporozoites, ± SE, read-out: Activity against Hep G cells
Experimental: as §1

A2780/WT cells = test: Chemosensitivity MTT assay, A2780 wild type; format: cell-based, human; conditions: Homo sapiens, A2780, 96 h, ± SE, read-out: Activity against A2780/WT cells, IC50
Experimental: (§2) The chemosensitivity of compounds 3–6 was assessed in the wild-type immortalized human ovarian adenocarcinoma cell line A2780 and its daughter cell lines, which are resistant to the standard cancer chemotherapeutics doxorubicin (A2780/ADR) and cisplatin (A2780/CIS, all cell lines from ECACC, Salisbury, United Kingdom). A modified MTT assay was used ([Shnyder et al., 2008]). Cells (2 × 10^4/ml) were inoculated into each well of a 96-well plate and incubated for 24 h at 37°C in a humidified atmosphere containing 5% CO2. Compounds were then added at a range of concentrations to each well, and the plates were then incubated for a further 96 h. After 96 h, the culture medium was removed and 200 μL of 0.5 mg ml^–1 MTT solution (Sigma) in the complete medium was added to each well. Following a further 4 h incubation, the solution was removed from each well and 150 μL of DMSO was added to solubilize the formazan crystals resulting from MTT conversion. The absorbance values for the resulting solutions were read at 540 nm on an Azure 96-well microplate reader (Azure Biosynstems Inc.), and the cell survival was calculated as the absorbance of treated cells divided by the control.

A2780/cis cells = test: Chemosensitivity MTT assay, cisplatin-resistant A2780/CIS; format: cell-based, human; conditions: Homo sapiens, A2780cis, 96 h, ± SE, read-out: Activity against A2780/cis cells, IC50
Experimental: as §2

[1] = system: P. falciparum (NF54-Mal8p1.16-GFP-Luc) late-stage gametocytes; test: microbe, parasite or virus in culture; format: cell-based, Plasmodium falciparum
Experimental: Gametocytes were produced as per [Reader et al. (2015]; [2021)] from P. falciparum NF54-Mal8p1.16-GFP-Luc ([Adjalley et al., 2011]), and each batch was validated for viability and functionality before use. […] Drug assays were set up on day 10 (representing late gametocytes, >90% stage IV/V gametocytes) using a 2–3% gametocytemia, 1.5% hematocrit culture. The drug pressure was for 48 h under stationary, hypoxic conditions (90% N2, 5% O2, and 5% CO2) at 37°C. Luciferase activity was determined in 30 μL parasite lysates by adding 30 μL luciferin substrate (Promega Luciferase Assay System) at room temperature and detection of resultant bioluminescence at an integration constant of 10 s with the GloMax®-Multi + Detection System with Instinct® Software. Methylene blue (5 μM) and an internal control (MMV390048, 5 μM) were routinely included as controls.

Compound | IC50 (P. berghei sporozoites) [nM] | Selectivity index (SI), P. berghei liver stage with respect to Hep G cells (P. berghei sporozoites) | IC50 (Hep G2-A16-CD81 cells) [nM] | IC50 (A2780/WT cells) [nM] | IC50 (A2780/cis cells) [nM] | IC50 ([1]; Plasmodium falciparum, NF54, 48 h, read-out: Activity against late-stage gametocytes IC50) [nM] | Selectivity index (SI), late-stage gametocytes with respect to Hep G cells ([1]; SI with respect to Hep G cells)
C[n+]1c2ccccc2cc2[n-]c3ccc(I)cc3c21 [Compound 5, 7-iodocryptolepine] | 14600 ± 420 | 0.46 | 6700 ± 500 | 60 ± 10 | 310 ± 190 | – | –
C[n+]1c2ccccc2cc2[n-]c3c(Br)cc(Br)cc3c21 [Compound 4, 7,9-Dibromocryptolepine] | 5820 ± 260 | 1.17 | 6790 ± 920 | 200 ± 580 | 580 ± 100 | – | –
C[n+]1c2ccccc2cc2[n-]c3c(I)cc(I)cc3c21 [Compound 6, 7,9-diiodocryptolepine] | 6130 ± 620 | 4.6 | 28200 ± 4100 | 130 ± 70 | 280 ± 50 | 2200 ± 20 | 13 and 12.8
